In article PMC11819603, “Development of a reliable, sensitive, and convenient assay for the discovery of new eIF5A hypusination inhibitors” (PLOS ONE, 2025):
Like-named read-outs stand apart in the source and are kept apart here.

Columns and labels:
DOHH = target: T1, DOHH (Homo sapiens, UniProt Q9BU89); experiment: Hyp'Assay, substance added after the deoxyhypusination reaction (DOHH step); format: biochemical; conditions: 5 μM spermidine
T1 construct: pelB leader (N); host or cells: E. coli BL21 (DE3)
T1 sequence (Q9BU89 1-302): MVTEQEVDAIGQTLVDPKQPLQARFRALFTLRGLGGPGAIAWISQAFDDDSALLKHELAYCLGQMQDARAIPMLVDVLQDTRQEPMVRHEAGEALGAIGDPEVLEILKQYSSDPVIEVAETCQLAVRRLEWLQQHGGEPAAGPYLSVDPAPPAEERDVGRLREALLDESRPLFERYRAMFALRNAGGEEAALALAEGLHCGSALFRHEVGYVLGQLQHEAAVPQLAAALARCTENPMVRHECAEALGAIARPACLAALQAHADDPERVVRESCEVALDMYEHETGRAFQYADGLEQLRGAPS
Experimental: We then tested the ability of DOHH inhibitors to inhibit eIF5A hypusination using the Hyp’Assay. During the Hyp’Assay, DOHH inhibitors were added after the deoxyhypusination reaction.
To address this issue, we compared the ability of GC7 to inhibit DHPS or DOHH by adding GC7 during the first step of the Hyp’Assay; when DHPS mediates the deoxyhypusination reaction (Fig 2A), or only during the second step, when DOHH hydroxylate deoxyhypusinated eIF5A. […] When finding new hypusination inhibitors adding them during the first or the second step of the Hyp’Assay will allow us to determine if the inhibition affects DHPS or DOHH. Another way to discriminate between DHPS or DOHH inhibitors would be to use Hpu98, an antibody that recognized both hypusinated and deoxyhypusinated eIF5A, instead of Hpu24, which is specific for hypusinated eIF5A [18]. […] We performed a new Hyp’Assay by omitting DOHH in the reaction mix and using the Hpu98 antibody. First, we performed a dose response experiment with spermidine at pH: 8.0 and 9.0 (Fig 3E). […] We also tested the ability of GC7 (Fig 3F) and CPX or EDTA (Fig 3G) to inhibit DHPS.
[…] Then 10 μL containing 1 μg of DOHH with 10 μM Fe^2+ (H8FeN2O8S2^. 6H2O) were added. After 1 h proteins were analyzed by Western Blot using antibodies toward DHPS, DOHH, Hypusine, and eIF5A.
The cell-free reaction described in 4.4 is performed in triplicates in a 96-wells plate (MaxiSorp, ThermoFisher) in the presence of 3 μg of eIF5A, 2 μg of DHPS, and 2 μg of DOHH by well. The reaction product, hypusinated eIF5A, is adsorbed onto the plate overnight at 4°C. The plate is washed (100 μL/well) thrice with PBS-T (PBS– 0.05% Tween20), then saturated with 1% non-fat dry milk in PBS-T for 2 h at room temperature. The plate is washed thrice with PBS-T and incubated overnight at 4°C with the anti-hypusine antibody (1:2000 in saturation buffer, 50 μL/well). The next day and after 5 washes with PBS-T, HRP-coupled anti-rabbit secondary antibody diluted 1:5000 in saturation buffer (50 μL/well) is added for 2 h at room temperature.

DHPS = conditions: read-out: IC50 previously reported, cited from earlier work

For `N=C(N)NCCCCCCCN` [GC7, N1-guanyl-1,7-diaminoheptane], which “Relative hypusination of eIF5A, Mean (quantification from Figure 3D)” value (DOHH; GC7 added during the DOHH step, CTRL 100,0) is on record?
Its value is 99,58 a.u.

And the effect on hypusination (DOHH; added only during the hydroxylation step (DOHH))?
The effect on hypusination was “no inhibition was observed”.

And the IC50 (DHPS; ref 25)?
The IC50 was 17 nM.

And the IC50 (DHPS; ref 26)?
The IC50 was 50 nM.
